Reference: patent publication US20090005424A9, “Composition and Method for Treating Fibrotic Diseases” (priority 2005, published 2009)
Where two headings read alike, the source gives them in different places. Marks after values point to notes of the source that are not given here.

How the values were obtained:
Kidney Fibroblast = test: MTT proliferation assay, mouse kidney fibroblast; type: cell-based; details: for order of inhibitory effect: kidney fibroblast
Procedure: Cell proliferation was measured by MTT assay. DMEM with 10% fetal serum was used as cell culture medium. The cells were prepared in suspension (1×10^5/ml), and 100 μL of the suspension was transferred to each well of a 96 wells plate. Once the cells were attached to the plastic, the culture was changed to serum free medium and continued for another 24 hours. The serum free medium was aspirated, and various concentrations of 1-(3′-fluorophenyl)-5-methyl-2(1H)-pyridone (AKF-PD) 1-(3′-bromophenyl)-5-methyl-2(1H)-pyridone (AKF-BR) or PIRFENIDONE (PFD) in 10% serum medium were added into each well with 5 replicates for each concentration. The cells were stained with MTT (10 μL per well) at 24, 48, and 72 hours post drug treatment. After 4 hrs of incubation, the medium with MTT was aspirated from each well. One hundred μL MTT solvent was added to each well for 15 min. The dissolved MTT was then measured with a plate reader at 570 nm.

[1] = system: Human Skin Scar Forming Fibroblasts; test: MTT proliferation assay, human skin scar forming fibroblasts; type: cell-based
Procedure: (§1) In the following examples, myocardiac fibroblasts, skin scar forming fibroblast and human peritoneal mesothelial cells are primary cultures prepared according to common procedure. Other cells are commercially purchased. 1-(3-fluorophenyl)-5-methyl-2(1H)-pyridone (AKF-PD) is prepared as a suspension in 5% carboxymethylcellulose.
(§2) Cell proliferation was measured by MTT assay. DMEM with 10% fetal serum was used as cell culture medium. The cells were prepared in suspension (1×10^5/ml), and 100 μL of the suspension was transferred to each well of a 96 wells plate. Once the cells were attached to the plastic, the culture was changed to serum free medium and incubated for another 24 hours. Then, the serum free medium was aspirated, and various concentrations of 1-(3′-fluorophenyl)-5-methyl-2(1H)-pyridone (AKF-PD) or PIRFENIDONE (PFD) in 10% serum medium were added into each well with 5 replicates for each concentration. The cells were stained with MTT (10 μL per well) at 12, 24, or 48 hours post drug treatment. After 4 hrs of incubation, the medium with MTT was aspirated from each well. One hundred μL MTT solvent was added to each well for 15 min, and the dissolved MTT was measured with a plate reader at 570 nm.

Kun Ming (KM) mice = details: cited from earlier work
[2] = Acute oral toxicity in Kun Ming mice, LD50 by Bliss method; details: both sexes, Kun Ming (KM), mouse, in vivo, po
Procedure: Male and female Kun Ming (KM) mice weighing between 18 g-22 g were acquired from the animal facility of Hsiang-Ya Medical College, the Central South University. Fifty Kun Ming mice were randomly assigned into 5 groups with 5 male and 5 female mice for each group. The animals went through fasting with a normal water supply before starting drug treatment (either AKF-PD or PIRFENIDONE). The drug was administrated orally by gavage. The volume of liquid drug was 20 ml/kg body weight. The range of dosage for AKF-PD administrated was from 1071 mg/kg to 6000 mg/kg. The dosage difference between two adjacent doses was 1:0.65 (a dose vs the next lower dose). All animals were maintained under a regular condition. Acute toxic reaction and death within 14 days of post drug treatment were recorded. Autopsy was performed on all dead animals and visual examination was performed on all organs.
LD50 was calculated according to Bliss method. […] The results of Table 15 are very close to those reported in the literature: 997.7 mg/kg (U.S. Pat. No. 5,310,562) and 1112 mg/kg(Pharmaceutical Care and Research 5:4823(2005)).

[3] = system: Rat Myocardiac Fibroblasts; test: MTT proliferation assay, rat myocardiac fibroblasts; type: cell-based
Procedure: as §1, §2

[4] = system: Sprague-Dawley rats, Bleomycin-induced pulmonary fibrosis; test: Bleomycin-induced rat pulmonary fibrosis, severity of fibrotic lesions; type: in vivo; details: AKF-PD 500 mg/kg daily by gavage; 27 days post surgery; total of 8 rats
Procedure: Bleomycin-induced rat pulmonary fibrosis is selected for testing 5-methyl-1-(3′-fluorophenyl)-2(1H)-pyridone (AKF-PD). Male Sprague-Dawley rats (6-8 weeks old, 180 g˜220 g) were cared under regular condition. The animals were randomly divided into 3 groups: sham surgical group, model disease group, and disease/AKF-PD group. Six mg/kg/4 ml of Bleomycin was slowly infused into the trachea of rats in the model disease and disease/AKF-PD groups. Same amount of normal saline was infused into the trachea of rats in the sham surgical group.
Five hundred mg/kg AKF-PD was directly administrated by gavage to rats in the disease/AKF-PD group daily from 2 days prior to operation through 27 days after operation. Normal saline was used for all animals in both disease and sham surgical groups. The animals were sacrificed at 27 days post surgery and the lung tissues were removed for pathological sample preparation. The HE-stained lung tissues from each rat were examined under microscope to determine the frequency and severity of fibrotic lesion. Evaluation of lung tissue fibrosis was carried out according to the method of Szapiel et al., Bleomycin-induced interstitial pulmonary disease in the nude, athymic mouse. Am. Rev. Respir. Dis. 120:893-9(1979).

Cc1ccc(=O)n(-c2ccccc2)c1 [PFD, 5-methyl-1-phenyl-2(1H)-pyridone, reference compound]
Optical Density at 570 nm (Kidney Fibroblast; 100 μg/ml, 24 h): 0.5911 ± 0.1002 | Optical Density at 570 nm (Kidney Fibroblast; 100 μg/ml, 48 h): 0.5844 ± 0.0171 | Optical Density at 570 nm (Kidney Fibroblast; 100 μg/ml, 72 h): 0.5264 ± 0.1530 | Optical Density at 570 nm (Kidney Fibroblast; 500 μg/ml, 24 h): 0.5877 ± 0.1204 | Optical Density at 570 nm (Kidney Fibroblast; 500 μg/ml, 48 h): 0.5450 ± 0.0196 | Optical Density at 570 nm (Kidney Fibroblast; 500 μg/ml, 72 h): 0.4798 ± 0.2355 | Optical Density at 570 nm (Kidney Fibroblast; 1000 μg/ml, 24 h): 0.5798 ± 0.0149 | Optical Density at 570 nm (Kidney Fibroblast; 1000 μg/ml, 48 h): 0.5272 ± 0.0229 | Optical Density at 570 nm (Kidney Fibroblast; 1000 μg/ml, 72 h): 0.4269 ± 0.0302 | order of inhibitory effect (Kidney Fibroblast): AKF-PD>AKF-BR>pirfenidone | Optical Density at 570 nm ([1]; 100 μg/ml, 12 h): 0.194 ± 0.004 | Optical Density at 570 nm ([1]; 100 μg/ml, 24 h): 0.250 ± 0.003 | Optical Density at 570 nm ([1]; 100 μg/ml, 48 h): 0.366 ± 0.006 | Optical Density at 570 nm ([1]; 500 μg/ml, 12 h): 0.191 ± 0.008 | Optical Density at 570 nm ([1]; 500 μg/ml, 24 h): 0.245 ± 0.004*^+ | Optical Density at 570 nm ([1]; 500 μg/ml, 48 h): 0.350 ± 0.003***^++ | Optical Density at 570 nm ([1]; 1000 μg/ml, 12 h): 0.190 ± 0.008 | Optical Density at 570 nm ([1]; 1000 μg/ml, 24 h): 0.330 ± 0.001*^++ | Optical Density at 570 nm ([1]; 1000 μg/ml, 48 h): 0.328 ± 0.004***^++ | Optical Density at 570 nm ([1]; 2500 μg/ml, 12 h): 0.193 ± 0.004 | Optical Density at 570 nm ([1]; 2500 μg/ml, 24 h): 0.278 ± 0.001***^+++ | Optical Density at 570 nm ([1]; 2500 μg/ml, 48 h): 0.264 ± 0.005 | LD50 reported in the literature (Kun Ming (KM) mice; Pharmaceutical Care and Research 5:4823(2005)): 1112 mg/kg | LD50 reported in the literature (Kun Ming (KM) mice; U.S. Pat. No. 5,310,562): 997.7 mg/kg | LD50 at 14 days ([2]; LD50): 955 mg/kg | LD50 at 14 days ([2]; LD50 95% confidence limit): 551 to 1660 mg/kg | Optical Density at 570 nm ([3]; 100 μg/ml, 12 h): 0.330 ± 0.014 | Optical Density at 570 nm ([3]; 100 μg/ml, 24 h): 0.429 ± 0.009 | Optical Density at 570 nm ([3]; 100 μg/ml, 48 h): 0.654 ± 0.007*^+ | Optical Density at 570 nm ([3]; 500 μg/ml, 12 h): 0.329 ± 0.013 | Optical Density at 570 nm ([3]; 500 μg/ml, 24 h): 0.411 ± 0.006 | Optical Density at 570 nm ([3]; 500 μg/ml, 48 h): 0.612 ± 0.014***^++ | Optical Density at 570 nm ([3]; 1000 μg/ml, 12 h): 0.331 ± 0.009 | Optical Density at 570 nm ([3]; 1000 μg/ml, 24 h): 0.403 ± 0.010**^+ | Optical Density at 570 nm ([3]; 1000 μg/ml, 48 h): 0.597 ± 0.013***^+++ | Optical Density at 570 nm ([3]; 2500 μg/ml, 12 h): 0.329 ± 0.008 | Optical Density at 570 nm ([3]; 2500 μg/ml, 24 h): 0.392 ± 0.009**^+ | Optical Density at 570 nm ([3]; 2500 μg/ml, 48 h): 0.566 ± 0.027

Cc1ccc(=O)n(-c2cccc(F)c2)c1 [AKF-PD, 1-(3′-fluorophenyl)-5-methyl-2(1H)-pyridone]
inhibition of proliferation of kidney fibroblast (Kidney Fibroblast): capable of inhibiting the proliferation of kidney fibroblast | Optical Density at 570 nm (Kidney Fibroblast; 100 μg/ml, 24 h): 0.5907 ± 0.0199 | Optical Density at 570 nm (Kidney Fibroblast; 100 μg/ml, 48 h): 0.5850 ± 0.0134 | Optical Density at 570 nm (Kidney Fibroblast; 100 μg/ml, 72 h): 0.5080 ± 0.0145 | Optical Density at 570 nm (Kidney Fibroblast; 500 μg/ml, 24 h): 0.5799 ± 0.1086 | Optical Density at 570 nm (Kidney Fibroblast; 500 μg/ml, 48 h): 0.5185 ± 0.0331 | Optical Density at 570 nm (Kidney Fibroblast; 500 μg/ml, 72 h): 0.4314 ± 0.0264 | Optical Density at 570 nm (Kidney Fibroblast; 1000 μg/ml, 24 h): 0.5638 ± 0.0142 | Optical Density at 570 nm (Kidney Fibroblast; 1000 μg/ml, 48 h): 0.4298 ± 0.0258 | Optical Density at 570 nm (Kidney Fibroblast; 1000 μg/ml, 72 h): 0.3511 ± 0.0215 | order of inhibitory effect (Kidney Fibroblast): AKF-PD>AKF-BR>pirfenidone | Number of rats with Severity of Fibrosis: Milder [4]: 6 | Number of rats with Severity of Fibrosis: Moderate [4]: 1 | Number of rats with Severity of Fibrosis: None [4]: 0 | Number of rats with Severity of Fibrosis: Sever [4]: 1 | Optical Density at 570 nm ([1]; 100 μg/ml, 12 h): 0.192 ± 0.010 | Optical Density at 570 nm ([1]; 100 μg/ml, 24 h): 0.245 ± 0.002 | Optical Density at 570 nm ([1]; 100 μg/ml, 48 h): 0.366 ± 0.006 | Optical Density at 570 nm ([1]; 500 μg/ml, 12 h): 0.192 ± 0.006 | Optical Density at 570 nm ([1]; 500 μg/ml, 24 h): 0.238 ± 0.004 | Optical Density at 570 nm ([1]; 500 μg/ml, 48 h): 0.345 ± 0.007 | Optical Density at 570 nm ([1]; 1000 μg/ml, 12 h): 0.192 ± 0.009 | Optical Density at 570 nm ([1]; 1000 μg/ml, 24 h): 0.221 ± 0.004 | Optical Density at 570 nm ([1]; 1000 μg/ml, 48 h): 0.323 ± 0.009 | Optical Density at 570 nm ([1]; 2500 μg/ml, 12 h): 0.190 ± 0.002 | Optical Density at 570 nm ([1]; 2500 μg/ml, 24 h): 0.198 ± 0.008 | Optical Density at 570 nm ([1]; 2500 μg/ml, 48 h): 0.267 ± 0.001 | anti-proliferative potency compared with PIRFENIDONE ([1]; human skin fibroblasts): more potent anti-proliferative agent than PIRFENIDONE | LD50 at 14 days ([2]; LD50): 2980 mg/kg | LD50 at 14 days ([2]; LD50 95% confidence limit): 2400 to 3700 mg/kg | Optical Density at 570 nm ([3]; 100 μg/ml, 12 h): 0.328 ± 0.010 | Optical Density at 570 nm ([3]; 100 μg/ml, 24 h): 0.426 ± 0.006 | Optical Density at 570 nm ([3]; 100 μg/ml, 48 h): 0.620 ± 0.018 | Optical Density at 570 nm ([3]; 500 μg/ml, 12 h): 0.326 ± 0.003 | Optical Density at 570 nm ([3]; 500 μg/ml, 24 h): 0.408 ± 0.009 | Optical Density at 570 nm ([3]; 500 μg/ml, 48 h): 0.580 ± 0.014 | Optical Density at 570 nm ([3]; 1000 μg/ml, 12 h): 0.332 ± 0.006 | Optical Density at 570 nm ([3]; 1000 μg/ml, 24 h): 0.392 ± 0.008 | Optical Density at 570 nm ([3]; 1000 μg/ml, 48 h): 0.538 ± 0.009 | Optical Density at 570 nm ([3]; 2500 μg/ml, 12 h): 0.325 ± 0.008 | Optical Density at 570 nm ([3]; 2500 μg/ml, 24 h): 0.377 ± 0.013 | Optical Density at 570 nm ([3]; 2500 μg/ml, 48 h): 0.514 ± 0.005 | anti-proliferative potency compared with PIRFENIDONE ([3]; rat myocardiac fibroblasts): more potent anti-proliferative agent than PIRFENIDONE
